Test: Stability (integrity) testing of amorphous and polymorphic form under storage conditions, RP-HPLC
Type: physicochemical
Parameters: Impurity RRT 1.104 / Impurity RRT 1.698: unit not given beside the values
How it was run: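 Amorphous form and three batches of polymorphic Form I of the hemi calcium salt were stored under different atmospheric conditions. Purity measured by RP-HPLC on C18 with UV detection, drug as percent of total absorption; total impurity from summed impurity peak areas, impurities identified by relative retention time.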

CC(C)c1c(C(=O)Nc2ccc(CO)cc2)c(-c2ccccc2)c(-c2ccc(F)cc2)n1CC[C@@H](O)C[C@@H](O)CC(=O)[O-].CC(C)c1c(C(=O)Nc2ccc(CO)cc2)c(-c2ccccc2)c(-c2ccc(F)cc2)n1CC[C@@H](O)C[C@@H](O)CC(=O)[O-].[Ca+2] [PP00105, (3R, 5R)-7-[2-(4-fluorophenyl)-5-isopropyl-3-phenyl-4-[(4-hydroxymethylphenylamino)carbonyl]-pyrrol-1-yl]-3,5-dihydroxy-heptanoic acid, hemi calcium salt]
Description (5° C. 1M): White | Impurity RRT 1.096 (5° C. 1M): 0.248 | Impurity RRT 1.183 (5° C. 1M): 0.051 | Impurity RRT 1.439 (5° C. 1M): 0.17 | Impurity RRT 1.596 (5° C. 1M): 0.086 | Impurity RRT 1.698 (5° C. 1M): 0.068 | Assay (5° C. 1M, hemi calcium salt): 98.36 % W/W | Highest Impurity (5° C. 1M, hemi calcium salt): 0.459 | Impurity RRT 0.935 (5° C. 1M, hemi calcium salt): 0.412 | Impurity RRT 1.045 (5° C. 1M, hemi calcium salt): 0.459 | Impurity RRT 1.64 (5° C. 1M, hemi calcium salt): 0.063 | Total Impurity (5° C. 1M, hemi calcium salt): 1.56 | Water (5° C. 1M, hemi calcium salt): 4.45 % W/W | Description (5° C. 2M): White | Impurity RRT 1.096 (5° C. 2M): 0.233 | Impurity RRT 1.183 (5° C. 2M): 0.06 | Impurity RRT 1.439 (5° C. 2M): 0.163 | Impurity RRT 1.596 (5° C. 2M): 0.079 | Impurity RRT 1.698 (5° C. 2M): 0.07 | Assay (5° C. 2M, hemi calcium salt): 98.24 % W/W | Highest Impurity (5° C. 2M, hemi calcium salt): 0.443 | Impurity RRT 0.935 (5° C. 2M, hemi calcium salt): 0.413 | Impurity RRT 1.045 (5° C. 2M, hemi calcium salt): 0.443 | Impurity RRT 1.64 (5° C. 2M, hemi calcium salt): 0.06 | Total Impurity (5° C. 2M, hemi calcium salt): 1.52 | Water (5° C. 2M, hemi calcium salt): 4.31 % W/W | Description (5° C. 3M): White | Impurity RRT 1.096 (5° C. 3M): 0.216 | Impurity RRT 1.439 (5° C. 3M): 0.150 | Impurity RRT 1.596 (5° C. 3M): 0.068 | Impurity RRT 1.698 (5° C. 3M): 0.068 | Total Impurity (5° C. 3M): 1.35 | Assay (5° C. 3M, hemi calcium salt): 98.19 % W/W | Highest Impurity (5° C. 3M, hemi calcium salt): 0.414 | Impurity RRT 0.935 (5° C. 3M, hemi calcium salt): 0.376 | Impurity RRT 1.045 (5° C. 3M, hemi calcium salt): 0.414 | Impurity RRT 1.64 (5° C. 3M, hemi calcium salt): 0.055 | Water (5° C. 3M, hemi calcium salt): 3.90 % W/W | Description (5° C. 4M): White | Impurity RRT 0.138 (5° C. 4M): 0.228 | Impurity RRT 1.096 (5° C. 4M): 0.205 | Impurity RRT 1.439 (5° C. 4M): 0.159 | Impurity RRT 1.596 (5° C. 4M): 0.060 | Impurity RRT 1.698 (5° C. 4M): 0.052 | Assay (5° C. 4M, hemi calcium salt): 98.17 % W/W | Highest Impurity (5° C. 4M, hemi calcium salt): 0.427 | Impurity RRT 0.935 (5° C. 4M, hemi calcium salt): 0.341 | Impurity RRT 1.045 (5° C. 4M, hemi calcium salt): 0.427 | Impurity RRT 1.640 (5° C. 4M, hemi calcium salt): 0.051 | Total Impurity (5° C. 4M, hemi calcium salt): 1.523 | Water (5° C. 4M, hemi calcium salt): 5.08 % W/W | Description (5° C. 5M): White | Impurity RRT 0.138 (5° C. 5M): 0.22 | Impurity RRT 1.096 (5° C. 5M): 0.236 | Impurity RRT 1.439 (5° C. 5M): 0.122 | Impurity RRT 1.596 (5° C. 5M): 0.054 | Impurity RRT 1.698 (5° C. 5M): 0.065 | Assay (5° C. 5M, hemi calcium salt): 98.27 % W/W | Highest Impurity (5° C. 5M, hemi calcium salt): 0.401 | Impurity RRT 0.935 (5° C. 5M, hemi calcium salt): 0.373 | Impurity RRT 1.045 (5° C. 5M, hemi calcium salt): 0.401 | Impurity RRT 1.640 (5° C. 5M, hemi calcium salt): 0.047 | Total Impurity (5° C. 5M, hemi calcium salt): 1.527 | Water (5° C. 5M, hemi calcium salt): 4.67 % W/W | Description (5° C. 6M): White | Impurity RRT 0.138 (5° C. 6M): 0.238 | Impurity RRT 1.096 (5° C. 6M): 0.189 | Impurity RRT 1.183 (5° C. 6M): 0.056 | Impurity RRT 1.439 (5° C. 6M): 0.146 | Impurity RRT 1.596 (5° C. 6M): 0.080 | Impurity RRT 1.698 (5° C. 6M): 0.059 | Water (5° C. 6M): 5.04 % W/W | Assay (5° C. 6M, hemi calcium salt): 98.61 % W/W | Highest Impurity (5° C. 6M, hemi calcium salt): 0.438

Reference: US20080153896A1, “Polymorphic Forms of an HMG-CoA Reductase Inhibitor and Uses Thereof” (priority 2006, published 2008)
